Measured values from article PMC6767236, “Selective Cannabinoid 2 Receptor Agonists as Potential Therapeutic Drugs for the Treatment of Endotoxin-Induced Uveitis” (Molecules, 2019).
≈ marks a conversion by molar mass, not a printed value. Entries after “also recorded” stand apart in the source; their conditions may differ. Read-outs that look alike come from different tables or passages of the source.

Key:
[1] = phosphate buffer pH 6.5; * previously published; cited from earlier work
[2] = human hepatocytes; * previously published; cited from earlier work
[3] = Saturation (thermodynamic) solubility in buffer, FaSSIF, FeSSIF; type: physicochemical; conditions: thermodynamic from solid
Description: (§1) Saturation Solubility (= Thermodynamic Solubility)
(§2) Approximately 8.6 mg test compound per milliliter solvent/vehicle was stirred in HPLC vials (9 × 12 × 32 mm, Waters) at 350 rpm for 15 h. Samples of 10 µL each were taken and microscopically examined for presence of solid particles. If the active pharmacological ingredient (API) dissolved completely, more solid API was added, and stirring was continued for another 15 h. Addition of solid material was repeated up to 96 h or until residual solid particles could be detected. Samples of 0.5 mL were then transferred to Eppendorf Ultrafree filter tubes (Filter: PVDF 0.22 µm) and centrifuged at 14,500 rpm for 10 min. The filtrates were diluted in ethanol and analyzed for content by UPLC. The measurements were also conducted in 0.05 M aqueous phosphate buffer, fasted (FaSSIF), and fed (FeSSIF) simulated gastrointestinal fluid. […]

[4] = target: mouse CB2R (Mus musculus, UniProt P47936); assay: cAMP assay, mouse CB2R (mouse spleen homogenate); type: biochemical
Description: The effect of ligands on the forskolin-stimulated accumulation of cAMP was determined using the LANCE ULTRA cAMP kit as per the manufacturer’s instruction (Perkin-Elmer Life Sciences, Boston, MA, USA).
For mouse CB2R cAMP assays, mouse spleen was resuspended in 50 mM of Tris-HCl (pH 7.4), then homogenized with a Potter homogenizer and centrifuged at 1000× g for 10 min. The supernatants were incubated for 30 min with 1-methyl-3-isobutylxanthine (IBMX), then forskolin was added in the presence or absence of ligands. The supernatants were incubated for 30 min in ATP Regeneration Buffer (50 mM HEPES, pH 7.4, 10 mM phosphocreatine, 10 units/mL creatine phosphokinase, 10 μM GTP, 200 μM ATP, 10 mM MgCl2, 250 μM IBMX), and the reaction was stopped by adding lysis buffer. Time-resolved fluorescence was measured with a Victor V Multilabel counter (Perkin-Elmer Life Sciences, Boston, MA, USA).

[5] = Saturation solubility in selected solvents/vehicles; type: physicochemical; conditions: for solubility: thermodynamic from solid, n = 1; for pH of solution in HP-beta-CD 15% / pH of solution in PEG400 30% / pH of solution in Tocrisolve / pH of solution in Mixed Micelles: solubility sample
Description: as §1, §2

[6] = Description: The GSH adduct formation test aims for the identification of molecules which bear the risk of forming reactive metabolites that might trigger drug-induced liver injury and drug-induced hypersensitivity reactions in patients. The compounds are incubated with liver microsomes to assess reactive metabolite formation. Glutathione is added as a nucleophile to convert eventually formed reactive species into a stable conjugate that can be analyzed by mass spectrometry. Details on the assay have been reported in Brink et al. (2014). […]
[7] = target: CYP2C9 (Homo sapiens, UniProt P11712); assay: Cytochrome P450 inhibition assay, CYP2C9; type: in vitro ADME
[8] = parameters: method as in earlier work; conditions: mouse, i.v., 0.5-1 mg/kg; * previously published; cited from earlier work
[9] = system: leukocyte-endothelial interactions in the iridial microcirculation; assay: Endotoxin-induced uveitis (EIU), intravital microscopy of iridial microcirculation, WT mice; type: in vivo, BALB/c mice; conditions: 6 h after intravitreal LPS; for Rolling leukocytes per min: LPS + topical 1.5% w/v, mean ± SD, n = 6; for adherent leukocytes in the iridial microcirculation: WT mice, topical 1.5% w/v (5 µL/animal), vs LPS + vehicle
Description: EIU was induced in BALB/c mice using an intravitreal injection of LPS (2 μL; 125 ng/μL; E. coli 0111:B4 L084M4118V; Sigma-Aldrich, Oakville, ON, Canada) in saline,. Animals were anesthetized with isoflurane (4% induction, 2% maintenance), and were injected intravitreally through the pars plana with sterile saline (control) or LPS solution using a 30G needle and Hamilton syringe (Hamilton Company, Reno, NV, USA) with the assistance of a WILD M37 dissecting microscope (Leitz Canada, Kitchener, ON, Canada). The puncture wound was glued shut with 3M Vetbond Tissue Adhesive (3M Animal Products, St. Paul, MN, USA), and animals were allowed to recover.
IVM was conducted as previously described in Toguri et al. (2014). The iridial microcirculation was imaged 6 h after induction of EIU. Animals were anesthetized with pentobarbital (i.p., 54 mg/kg). Fifteen minutes before initiating IVM, 0.05% Rhodamine 6G (1.5 mL/kg; Sigma-Aldrich) was injected intravenously (i.v.) to visualize leukocytes within the vasculature, while 5% fluorescein isothiocyanate (FITC) conjugated albumin (i.v., 1 mL/kg; Sigma-Aldrich) was used to visualize blood flow. The iridial microcirculation was observed using an Olympus OV100 Small Animal Imaging System (Olympus, Tokyo, Japan), which contains an MT-20 light source, fluorescence excitation from a xenon lamp (150 W) and an excitation filter for rhodamine-6G (excitation 515–560 nm, emission 590 nm). Images were captured in real-time by a black and white DP70 CCD C-mount camera and digitally recorded using HCImage software (Hamamatsu, Herrsching, Germany).
During IVM animals were placed on a heating pad in a stereotactic frame, and Tear-Gel® (Novartis Pharmaceuticals Canada Inc., Dorval, QC, Canada) was applied to their cornea. The iris was divided into four equal quadrants by drawing two superficial lines on the cornea, lengthwise and widthwise. IVM was carried out in each of these quadrants. Two to four videos of each quadrant were recorded for 30 s each. Videos were analyzed off-line without knowledge of the treatment groups. […] Using ImageJ software (National Institute of Health, Bethesda, MD, USA) the number of adherent leukocytes within each vessel segment was calculated by measuring the diameter and length of vessel segment studied, assuming a cylindrical geometry of blood vessels. Adherent leukocytes were expressed as number of cells per mm^2 of endothelial surface. Rolling leukocytes were classified as cells that moved along the endothelium and crossed a predetermined cross-sectional line of the venule. The number of rolling leukocytes was counted for 30 s and used to calculate the number of rolling leukocytes per min. IVM was conducted 6 h after induction of EIU.
RO6871304, RO6871085, or RO6851228 were applied topically on the left eye (1.5% w/v; 5 μL/animal)) directly after injection of LPS in the same eye. Control animals received vehicle (Tocrisolve) (5 μL/animal) only. HU910 was dissolved for i.v. administration in mixed micelles.

[10] = FaSSIF pH 6.5, read-out: Thermodynamic Solubility in FaSSIF (pH 6.5)
[11] = FeSSIF pH 5.5, read-out: Thermodynamic Solubility in FeSSIF (pH 5.5)
[12] = aqueous phosphate buffer pH 6.5, read-out: Thermodynamic Solubility in Aqueous Buffer (pH 6.5)
[13] = aqueous with cosolvent or surfactant or cyclodextrin, in demin. water, HU308 crystalline material, read-out: Solubility in HP-beta-CD 15%
[14] = aqueous with cosolvent or surfactant or cyclodextrin, RO6871085 as hydrochloride salt, HU308 crystalline material, > = saturation not achieved, read-out: Solubility in Tocrisolve
[15] = oil or lipid, RO6871085 as hydrochloride salt, HU308 crystalline material, > = saturation not achieved, read-out: Solubility in MCT (Miglyol 812)
[16] = RO6871085 as hydrochloride salt
[17] = aqueous with cosolvent or surfactant or cyclodextrin, in demin. water, HU308 crystalline material, read-out: Solubility in PEG400 30%
[18] = pH 6, aqueous with cosolvent or surfactant or cyclodextrin, 200 mM glycocholic acid, 200 mM lecithin in water for injection, pH 6, RO6871085 as hydrochloride salt, read-out: Solubility in Mixed Micelles

Chain of CYP2C9 (P11712 whole entry): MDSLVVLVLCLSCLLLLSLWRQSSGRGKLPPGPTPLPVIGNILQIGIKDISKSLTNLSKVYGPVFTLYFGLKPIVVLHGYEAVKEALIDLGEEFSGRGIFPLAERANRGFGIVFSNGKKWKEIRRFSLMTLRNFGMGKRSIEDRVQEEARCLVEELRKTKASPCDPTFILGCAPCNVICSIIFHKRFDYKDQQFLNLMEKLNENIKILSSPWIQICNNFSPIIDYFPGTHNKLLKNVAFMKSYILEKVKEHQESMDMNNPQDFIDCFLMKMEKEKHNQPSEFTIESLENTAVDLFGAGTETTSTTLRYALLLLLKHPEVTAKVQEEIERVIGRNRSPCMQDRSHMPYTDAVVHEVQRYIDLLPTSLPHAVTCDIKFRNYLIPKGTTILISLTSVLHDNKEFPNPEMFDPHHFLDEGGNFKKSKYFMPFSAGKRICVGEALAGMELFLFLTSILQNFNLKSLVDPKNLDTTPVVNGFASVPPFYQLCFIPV
Chain of mouse CB2R (P47936 whole entry): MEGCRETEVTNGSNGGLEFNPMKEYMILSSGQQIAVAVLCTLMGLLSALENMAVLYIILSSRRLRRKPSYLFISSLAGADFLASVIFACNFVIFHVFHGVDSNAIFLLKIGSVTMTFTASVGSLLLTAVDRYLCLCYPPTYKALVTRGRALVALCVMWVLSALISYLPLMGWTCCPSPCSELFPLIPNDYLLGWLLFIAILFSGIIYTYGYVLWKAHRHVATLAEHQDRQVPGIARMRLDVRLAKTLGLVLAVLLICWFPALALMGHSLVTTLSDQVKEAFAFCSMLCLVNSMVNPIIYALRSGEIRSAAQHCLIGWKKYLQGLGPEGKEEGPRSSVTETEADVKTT

Compound | Kinetic Solubility [1] [µg/mL] | Hepatocyte Clearance human [2] [μL/min/Mio cells] | solubility thermodynamic [3, 10] [µg/mL] | solubility thermodynamic [3, 11] [µg/mL] | solubility thermodynamic [3, 12] [µg/mL] | mouse CB2R: cAMP efficacy [4] [%] | solubility in Tocrisolve 100 [5] | solubility [5, 13] [µg/mL] | solubility [5, 14] [µg/mL] | solubility [5, 15] [µg/mL] | pH of solution in HP-beta-CD 15% [5] | pH of solution in PEG400 30% [5] | pH of solution in Tocrisolve [5, 16] | GSH Adduct Formation in Human Liver Microsomes [6] | Clearance (CL) [8] [mL/min/kg] | Vss [8] [L/kg] | adherent leukocytes in the iridial microcirculation [9] | solubility [5, 18] [µg/mL] | pH of solution in Mixed Micelles [5, 16] | IC50 ([7]; read-out: IC50 CYP2C9) [µM] | further results
CCCCCCC(C)(C)c1cc(OC)c([C@H]2C=C(CO)[C@H]3C[C@@H]2C3(C)C)c(OC)c1 [HU308, {(1S,4S,5S)-4-[2,6-Dimethoxy-4-(2-methyloctan-2-yl)phenyl]-6,6-dimethylbicyclo[3.1.1]hept-2-en-2-yl}methanol, reference compound] | < 0.75 | 8.3 | 52 (≈ 125 µM) | 60 (≈ 145 µM) | < 1 | 99 | considerably lower | 20 (≈ 48.2 µM) | 1600 | > 10300 | 5.7 | 5.1 | 6.1 | no adduct | – | – | – | – | – | – | EC50 [4]: 0.006 µM; IC50 [7]: > 50 µM
CNC(=O)[C@@H](NC(=O)c1cc(OCC2(C)COC2)c(C2CC2)cn1)C(C)(C)C [RO6851228, 5-Cyclopropyl-N-[(2S)-3,3-dimethyl-1-(methylamino)-1-oxobutan-2-yl]-4-[(3-methyloxetan-3-yl)methoxy]pyridine-2-carboxamide] | – | 12 | 421 (≈ 1080 µM) | 243 (≈ 624 µM) | 497 (≈ 1280 µM) | – | good solvent | 35500 (≈ 91100 µM) | 15000 | > 19000 | 7.6 | 7.4 | 7.3 | no adduct | 73.8 | 3.1 | increased leukocyte-adhesion; also recorded: increases leukocyte adhesion | > 1600 | 6.6 | > 50 | AUCINF D [8]: 226 ng·kg·h/mL/mg; T1/2 [8]: 1.08 h; Rolling leukocytes per min [9]: 0.45 ± 0.47 per min; hCB2R cAMP EC50/mouse CB2R cAMP EC50 ratio [4]: 7; solubility [5, 17]: 5900 µg/mL (≈ 15100 µM)
Cc1nc([C@](C)(CC2CC2)NC(=O)c2cc(OCC(F)(F)F)c(C3CC3)cn2)no1 [RO6871085, 5-Cyclopropyl-N-[(2S)-1-cyclopropyl-2-(5-methyl-1,2,4-oxadiazol-3-yl)propan-2-yl]-4-(2,2,2-trifluoroethoxy)pyridine-2-carboxamide] | – | 17 | 37 (≈ 87.2 µM) | 56 (≈ 132 µM) | 3 (≈ 7.07 µM) | – | good solvent | – | > 30000 | 2300 | – | – | 1.2 | no adduct | 11.8 | 4.0 | significantly attenuated | 200 | 6.1 | 8 | AUCINF D [8]: 1412 ng·kg·h/mL/mg; T1/2 [8]: 4.15 h
CC(C)(C)c1nc(N2CC[C@H](O)C2)c2nnn(Cc3nnnn3C3CC3)c2n1 [RO6871304, (3S)-1-{5-tert-butyl-3-[(1-cyclopropyl-1H-tetrazol-5-yl)methyl]-3H-[1,2, 3]triazolo[4,5-d]pyrimidin-7-yl}pyrrolidin-3-ol] | 162 ± 2 | 15 | – | – | – | 101 | considerably lower | 7200 (≈ 18700 µM) | 1300 | 2300 | 6.0 | 6.1 | 5.7 | no adduct | 36.5 | 0.95 | significantly attenuated; also recorded: most efficacious | > 1800 | 6.6 | 16 | Rolling leukocytes per min [9]: 0.05 ± 0.07 per min; EC50 ([4]; read-out: mouse CB2R: cAMP EC50): 0.0005 µM; solubility [5, 17]: 200 µg/mL (≈ 520 µM)
